Assay results from US8580728B2, “Use of fragrance compositions for the prevention of the development of indole base malodours from fecal and urine based soils” (Takasago International Corporation, priority 2006, dated 2013).

Assay: Decrease of fragrance compound concentration during the indole inhibition test (GCMS)
Type: physicochemical
Parameters: key: Y = Yes
Conditions: 24 hours in fresh human urine, room temperature; for Decrease in Fragrance Compounds after 24 hours (%): 0-30%: category 0-30% decrease; for Decrease in Fragrance Compounds after 24 hours (%): >60%: category >60% decrease
Description: Advantageously, the appropriate fragrance compounds may be selected by using the following preferred indole inhibition test which comprises the following steps: • A) 0.02 g of fragrance and 0.02 g of Tergitol 15-s-12 was added to 7 g of fresh human urine in a 20 ml Headspace vial sealed with a PTFE faced septum and well mixed for 10 minutes using a magnetic stirrer. For a blank to test the suitability of a batch of fresh human urine, 7 g of human urine was used with 0.02 g of demineralised water and 0.02 g of Tergitol 15-s-12. If a control was required, to test the efficacy of product base for example, the control contained 7 g of human urine to which was added 0.02 g of fragrance, minus the active agents and 0.02 g of Tergitol 15-s-12. • B) The vials are placed in an autosampler tray at room temperature. • C) At different times the headspace in the vials is sampled for 5 minutes at 35° C. by an SPME fibre (PDMS fibre ex Supelco) after 10 minutes at 35° C. (incubation time). • D) The SPME fibre is desorbed 1 minute at 265° C. from a CTC Combipal autosampler and injected in splitless mode onto an Agilent GC-MS 5973N with a HP-INNOWAX column (30 m×0.25×0.25). (Oven conditions: 50° C. during 2 min-to 250° C. at 10° C./min-250° C. during 5 minutes). • E) Under the above GC-MS conditions, indole has a retention time of 19.14 minutes, and can be recognised by its characteristic ions (m/z 117, m/z 89 and m/z 90). • F) In the range of values determined in this work, the area of the indole peak (117) is linearly related to the actual concentration in the vial, and was used without further correction to establish the concentration of indole in “Active” and “Blank” and if present any “Control” fragrances. • G) The material is deemed to be active if the indole concentration in the test sample is below 0.01 ppm (wt/wt) after 24 hours incubation at room temperature and the indole in the blank samples is between 0.25 ppm (wt/wt) and 1.25 ppm (wt/wt) indole after 24 hours storage at room temperature. • H) The change in the active ingredient concentration is determined by comparing measurements at the start of the experiment and after 24 hours using appropriate characteristic ions.
This can be determined by measuring the fragrance concentration in the sample containing the test cocktail at the start and end of the indole inhibition test as described in step I of the test. If the difference between the measurements is less than 60% preferably less than 30% then the material is considered as not to have changed sufficiently to alter the fragrance note and to be particularly preferred.
A sample of fresh human urine is divided into equal portions and a fragrance containing one or more of the effective materials was added as described in the Indole Inhibition Test. […] The samples were stored and after 24 hours the indole content and fragrance active content is measured by gas chromatography with mass spectrometric (GCMS) detection. Those formulations containing active ingredients prevented the formation of indole while both the unfragranced and the alcohol containing control samples had much greater quantities of indole present. Also for the active compounds a GCMS measurement indicated the extent to which the compound was itself consumed as part of the process. In table 2 the decrease in fragrance components has been classified into 3 categories and the letter Y indicates the appropriate category for the compounds which have been measured. The absence of a letter Y in any category means that the decrease has not been measured for that compound.

Compound | Decrease in Fragrance Compounds after 24 hours (%): 0-30% | other results
O=Cc1ccccc1 [Benzaldehyde] | Y | 
O=C/C=C/c1ccccc1 [Cinnamic aldehyde] | Y | 
CCC/C=C/C=O [Trans 2 hexenal] |  | Decrease in Fragrance Compounds after 24 hours (%): 0-60% (category 0-60% decrease): Y
CCc1occc(=O)c1O [Veltol Plus] |  | Decrease in Fragrance Compounds after 24 hours (%): >60%: Y
C=C(C)C1CC=C(C=O)CC1 (stereo not shown) [Perilla aldehyde] | Y | 
CCCCCCCCCCC=O [Aldehyde C11] |  | Decrease in Fragrance Compounds after 24 hours (%): >60%: Y
CC(C)=CCCC(C)=CC=O [Citral] | Y | 
